Assay results taken from patent US7348151B1, “Method for the cellular high-throughput-detection of nuclear receptor ligand interactions” (priority 1998, dated 2008).
Where two headings read alike, the source gives them in different places.

Tested on: ligand-binding domain of the human estrogen receptor (amino acids 282-595) fused to human Ha-Ras (L61) in cdc25-2 yeast cells
Format: cell-based
Details: for growth of cdc25-2-yeast cells: Glu medium + E (10^−5M)
Text: Expression of a functional, membrane-associated Ras protein fused to a nuclear receptor and/or parts of one such can be detected by the fact that the yeast cells are able to grow irrespective of the presence of a functional GEF protein at said restrictive temperatures if a suitable ligand of the expressed nuclear receptor is present.
The basic vector used is a vector with a marker gene (Ura) and a galactose-inducible promoter (GALI) for the fusion gene to be expressed. As shown diagrammatically in FIG. 2, the DNA sequence to be expressed encodes:
1. a myristylation signal,
3. the human Ha-Ras (L61) which is constitutively active and which lacks the so-called CAAX box, the farnesylation signal for membrane localization.
Conventional yeast transformation and manipulation protocols (see, for example, Hill et al. (1991), NAR 19, 5791) were used. The cells were plated out either on a glucose minimal medium which contains the necessary amino acids and nucleotides (20 mg/l histidine, 100 mg/l leucine, 20 mg/l tryptophan, 20 mg/l uracil, 10 mg/l adenine sulfate), 2% glucose, 0.5% NH4SC4, 0.17% yeast extract and 4% agar, or on galactose medium (1.7 g/l yeast nitrogen without amino acids, 5 g/l ammonium sulfate, 30 g/l galactose (>99%) 20 g/l D-raffinose, 20 g/l glycerol (100%), 30 g/l Bacto Agar).
Clones were plated out on YPD medium (1% yeast extract, 2% Bacto tryptone and 2% glucose) as control. YPD medium contains no galactose, so that there ought to be no expression of the fusion protein.
Replica platings were carried out with velvet replica plater. After transformation with the nucleic acid vector described above, the cells were plated out on glucose plates and incubated at a non-restrictive temperature of 25° C. for three to four days.

estrogen
growth of cdc25-2-yeast cells (25° C. (non-restrictive)): + | growth of cdc25-2-yeast cells (37° C. (restrictive), 12 to 36 h, OD 600): − | cell reproduction of transformed clones (YPD medium (no galactose, no expression of the fusion protein) with addition of estrogen, control): no cell reproduction
